The NIST ThermoML archive (doi:10.1021/je3009649)

Details: Liquid, Ebulliometric method (Recirculating still)

CCCCN [1-butanamine]
Details	vapor or sublimation pressure [kPa]
308.3 K	19.99
314.7 K	26.66
319.9 K	33.33
328.2 K	46.66
334.8 K	59.99
337.9 K	66.66
345.1 K	86.66
350 K	101.33

CCNCC [diethylamine]
Details	vapor or sublimation pressure [kPa]
294.7 K	26.66
299.5 K	33.33
307.6 K	46.66
316.7 K	66.66
323.9 K	86.66
328.3 K	101.33

C1CCNC1 [pyrrolidine]
Details	vapor or sublimation pressure [kPa]
316.9 K	19.99
323.4 K	26.66
329 K	33.33
337.6 K	46.66
347.5 K	66.66
354.9 K	86.66
359.4 K	101.33
